From patent US20240336565A1, “SOLID FORMS OF OSANETANT” (Acer Therapeutics, Inc., priority 2021, published 2024) come the findings set out here.

The nature of data set [1]: Long term stability: base (2M NaOH) at 60° C. Type of data set: physicochemical. To be noted: 2M NaOH, 60° C., up to 14 days. The method, then:
Osanetant p-toluenesulfonic acid Form 1 and osanetant benzenesulfonic acid Form 1 were tested for long-term stability across a number of different conditions, as detailed below.
Base at 60° C.—Osanetant p-toluenesulfonic acid Form 1 and osanetant benzenesulfonic acid Form 1 were prepared at an osanetant content 10 times the normal working concentration then added to HPLC vials containing 2M NaOH and stored in a darkened oven at 60° C. Samples were diluted to 2 mg/mL for analysis and were taken after T=1, 2, 4, 7, and 14 days storage. […] The purity of the resulting material is described in Table 45: […]

Data set [2] in a line: Salt screen: XRPD of isolated solids after drying at 40° C. and at 40° C./75% RH. Type of data set: physicochemical. In short, it runs like this:
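Amorphous lyophilized osanetant (~20 mg) slurried with 1.05 mol eq. counterion in solvent, thermally cycled 5–40 °C at 0.1 °C/min overnight. Solids isolated by centrifugation and analysed by XRPD, then re-analysed after ~24 h drying at 40 °C and again after ~24 h at 40 °C/75% RH.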

“Also recorded” adds a separate entry of the source.

Consider `CC(=O)N(C)C1(c2ccccc2)CCN(CCC[C@]2(c3ccc(Cl)c(Cl)c3)CCCN(C(=O)c3ccccc3)C2)CC1.Cc1ccc(S(=O)(=O)O)cc1` [osanetant p-toluenesulfonic acid Form 1, (R)-N-(1-(3-(1-benzoyl-3-(3,4-dichlorophenyl)piperidin-3-yl)propyl)-4-phenylpiperidin-4-yl)-N-methylacetamide p-toluenesulfonic acid], for which the “degradation on storage (purity)” value in data set [1] is recorded as “lack of degradation”. In addition, the “XRPD after drying at 40° C./75% RH” value in data set [2] (after 40° C. drying, dried at 40° C./75% RH for about 24 h, label = form after 40° C. drying) is reported as “retained; also recorded: stable; also recorded: Form 1”. Moreover, the “XRPD after drying at 40° C.” value in data set [2] (isolated solids dried at 40° C. for about 24 h, label = wet form) is “retained; also recorded: Form 1”.
